Test results published in PMC9162962 (European Journal of Medicinal Chemistry, 2022).

Biological target: SARS-CoV-2 M^pro (Severe acute respiratory syndrome coronavirus 2, UniProt P0DTD1)
Type: biochemical

NC(=S)N/N=C/c1ccc(-c2ccc(C(=O)O)c(O)c2)o1 [F8–B6, (E)-4-(5-((2-carbamothioylhydrazono)methyl)furan-2-yl)-2-hydroxybenzoic acid]
Effect of dithiothreitol (DTT) on inhibition: reverse the inhibitory effect
